Patent publication US20120083464A1, “NEUROPROTECTIVE PROPERTIES OF 5'-METHYLTHIOADENOSINE” (priority 2009, published 2012)
“Also recorded” adds a separate entry of the source.

Legend:
caspase 3 activity = experiment: NMDA-mediated increase in caspase 3 activity in mixed neuronal-glial culture; assay type: cell-based, Sprague-Dawley rat; settings: NMDA 300 μM, MTA 250 μM or MK-801 10 μM
Method: Primary cultures of brain cortical neurons and glia were essentially prepared as described previously (Bruno et al., 2001, Eur. J. Neurosci., 13:1469-1478). The fronto-lateral cortical lobes were dissected out of Sprague-Dawley embryonic day 17 foetuses and were mechanically dissociated in Hanks' balanced solution. The cortical lobes were triturated by aspirating 7-10 times using a Pasteur pipette with a flame-narrowed tip. […]
Cortical neurons or mixed cortical neurons and glia were plated on poly-L-lysine-coated 6-well culture plates and after 7 DIV, cells were treated with vehicle or NMDA (300 μM) for different periods of time. […] Extracts were then centrifuged at 5,000×g for 10 min at 4° C., and protein content was determined by using the BCA protein assay according to the manufacturer instructions. Cell extracts (40 μg of protein) were incubated in reaction buffer (25 mM Hepes, 10% sucrose, 0.1% CHAPS, 10 mM DTT) containing 50 μM fluorescence substrate Z-DEVD-AFC at 37° C. for 1 h. Cleavage of the AFC fluorophore was determined in a spectrofluorometer at excitation wavelength of 400 nm and fluorescence was detected at an emission wavelength of 505 nm. Caspase 3 activity was expressed as units of fluorescence/mg of protein/h (Posadas et al., 2009, Pharm. Res., In press).

[1] = test system: cerebellar organotypic cultures; experiment: LPS neuroinflammation model in cerebellar organotypic cultures: demyelination and axonal damage (immunofluorescence, Western blot); assay type: cell-based, C57/B16 wild type mice; settings: 192 μM MTA pre-treatment for half hour, 15 μg/ml LPS, 24 hrs
Source text: (§1) Organotypic cultures model of neuroinflammation is based on previous observations in which systemic injections of lipopolysaccharide (LPS) in mice spinal cord induce inflammation, demyelinization and Wallerian degeneration. In mice cerebellar organotypic cultures, LPS induces microglia activation with consequent demyelination and axonal damage. In particular, LPS induces TNF-alpha, IL1-beta release, axonal swelling and end bulbs due to axonal transport block, and a decrease of axonal density. Organotypic cultures represent the best model to represent in vivo mechanisms since they maintain cell-cell interaction and organotypic structure of brain region studied. In this way, this in vitro neuroinflammation model reproduces the microglia activation, demyelinization and axonal damage phenomena observed in MS.
(§2) Cerebellar organotypic cultures which were pre-treated for half hour with 192 μM of MTA and 15 μg/ml of LPS have been used to generate neuroinflammation model.
(§3) 2. Data analysis: Western blot, immunofluorescence and ELISA analysis were performed using conventional techniques.

IL-1β release = experiment: LPS neuroinflammation model in cerebellar organotypic cultures: IL1-beta ELISA; assay type: cell-based, C57/B16 wild type mice; settings: 192 μM MTA pre-treatment, 15 μg/ml LPS, 3 hrs
Source text: as §1, §2, §3

[2] = test system: hippocampal neurons after pilocarpine-induced status epilepticus; experiment: Pilocarpine model of temporal lobe epilepsy (status epilepticus), hippocampal histology; assay type: in vivo, Sprague-Dawley rats; settings: for quantification of cells in area CA1 at 30 days after SE: preliminary
Source text: We compared two MTA treatment regimens to examine its neuroprotective effect on pilocarpine-induced SE in adult rats. One regimen involved 5 days of MTA treatment beginning beginning 2 days before SE (pre-SE MTA). The other regimen, a more clinically relevant protocol, consisted of MTA treatment for 3 days beginning at the termination of SE (post-SE MTA).
Young adult (175-200 g), male Sprage-Dawley rats were divided into four MTA treatment groups, 9-11 rats per group. In group A, rats were subjected to pilocarpine-induced status epilepticus (SE). Following 90 minutes of continuous seizure activity, SE was stopped by a single administration of diazepam (10 mg/kg). The rats were injected either with vehicle or MTA once daily for 3 days. Rats were sacrificed at day 4 after SE, and their brains perfusion fixed, frozen and sectioned for histology. In group B, treatment of rats was the same as Group A except that the rats were sacrificed at day 30 after SE. In group C, rats were treated with MTA once daily for two days. On the third day, rats underwent pilocarpine-induced SE. The rats were continuously treated with MTA once daily for 3 more days; controls received placebo The rats were then anesthetized and sacrificed day 4 after SE. In group D, rats were treated the same way as Group C except that the rats were sacrificed on 30 days after SE.
The sections were subjected to cresyl violet (Nissl) staining and NeuN immunostaining to examine cell loss. Timm staining to identify mossy fiber sprouting was performed on the 30-day survival group.

RN22 cells = experiment: Copper sulphate stress in RN22 cells, ROS levels; assay type: cell-based, rat; settings: copper sulphate 150 μM, different time periods
Method: RN22 cells were maintained at 37° C. in DMEM medium supplemented with 10% of fetal bovine serum and penicillin/streptomycine. The assays against stress with copper sulphate were conducted using 24-well plates in DMEM medium without serum. After allowing cell adherence for three days, NGF (100 ng/ml) or MTA was added to different concentrations half an hour before the copper sulphate (150 μM). After twenty-four hours, cell viability was quantified by MTT assay and ROS production was quantified by fluorescence. Assays against stress with hydrogen peroxide were conducted in the same way as the foregoing, using 100 μM hydrogen peroxide as a stress-producing agent.
We determined the quantity of ROS produced by the cells after stress with and without treatment. 2′,7′- dichlorodihydrofluorescein (DCFH) is generally used to measure oxidative stress in cells. The cells were incubated with DCFH-DA (10 μM) at 37° C. for thirty minutes. After incubation, the cells were washed twice with PBS and lysed by adding 10 mM Tris-HCL buffer containing 0.5% of Tween 20. The homogenates were then centrifuged at 10,000 g for ten minutes to separate the cell residue and […] fluorescence in the supernatant was measured using a fluorometer (excitation wavelength 492-495 nm, emission wavelength 517-527 nm) (Invitrogen).

Compound: CSC[C@H]1O[C@@H](n2cnc3c(N)ncnc32)[C@H](O)[C@@H]1O [MTA, 5′-methylthioadenosine]
- protection against NMDA-induced caspase 3 activity (caspase 3 activity): blockade of caspase 3 activation; also recorded: protection
- demyelination and axonal damage (MBP/NFL immunofluorescence, CNPase/APP Western blot) [1]: prevents; also recorded: absents
- IL-1β release (ELISA) (IL-1β release): decreases; also recorded: minor quantity
- hippocampal neuronal loss, qualitative (Nissl stain, NeuN immunohistochemistry) ([2]; MTA started before or after SE, early and late timepoints, dentate hilus, CA1, CA3): qualitatively reduced neuronal loss; also recorded: qualitatively more Nissl-stained cells
- mossy fiber sprouting (Timm stain) ([2]; late timepoint, either MTA group): No qualitative difference
- quantification of cells in area CA1 at 30 days after SE ([2]; post-SE MTA group, p=0.057): trend toward neuroprotection; also recorded: non-significant trend toward increased cell numbers
- hippocampal NeuN immunoreactivity at 30 days after SE (representative example) ([2]; post-SE MTA, dentate gyrus): only mild cell loss
- quantification of cells in area CA1 at 30 days after SE ([2]; pre-SE MTA group, p=0.02): significant neuroprotective effects
- hippocampal NeuN immunoreactivity at 30 days after SE (representative example) ([2]; pre-SE MTA, dentate gyrus and pyramidal cell layer): good preservation of neurons
- ROS production under copper sulphate stress (RN22 cells): reduce ROS production
